Data published in patent US20240024494A1, “SMALL-MOLECULE CONJUGATE AND USE THEREOF” (SHANGHAI MEWSGEN BIOTECHNOLOGY CO., LTD, priority 2020, published 2024).
Where two headings read alike, the source gives them in different places.

Columns and labels:
[1] = system: human gastric carcinoma MGC803; experiment: In-vivo antitumor activity test in human gastric carcinoma MGC803 (subcutaneous tumor block in nude mice); parameters: species or system BALB/C nude mice; conditions: MGC803; 10 mg/kg, Ipx5 each week for 2 continuous weeks; d22
Procedure: (§1) Animals: BALB/C nude mice (SPF grade), male, and 18-20 g. The compounds were firstly added with DMSO at a total amount of 4%, then added with Tween-80 at a total amount of 2% for assisting dissolution, then added with PEG300 at a total amount of 5%, and finally added with sterilized normal saline to be prepared into a solution at 1 mg/mL. Idasanutlin was firstly added with DMSO at a total amount of 4%, then added with Tween-80 at a total amount of 2% for assisting dissolution, then added with PEG300 at a total amount of 5%, and finally added with sterilized normal saline to be prepared into a solution at 2.5 mg/mL.
A well-grown human gastric carcinoma MGC803 tumor mass was taken and aseptically cut into uniform small blocks of about 3 mm in size, and a right axilla of each mouse was subcutaneously inoculated with one block through a trocar. […] The animals were regrouped according to a tumor size. The animals with too large and too small tumors were sifted out. An average tumor volume in each group was approximately the same. An administration was started according to the following solution with an administration volume of 0.2 mL/20 g body weight. A long diameter a (mm) of the tumor and a short diameter b (mm) vertical to the tumor were measured by a digital display electronic caliper 2 times a week from day 9 of the inoculation. A tumor volume was calculated by the formula: TV=ab^2/2, and a relative tumor volume was calculated by the formula: RTV=Vt/Vo, wherein Vo was the obtained tumor volume measured at a cage separation (i.e. d1) and Vt was the tumor volume measured at each time. The animals were sacrificed 30 days after the inoculation (d22) and weighed, tumor mass was obtained by dissection and weighed, and the results were determined according to the following formula: […]

[2] = In-vivo antitumor activity test in human stromal tumor SHG44 (subcutaneous tumor block in nude mice); parameters: species or system BALB/C nude mice; conditions: SHG44; 10 mg/kg, Ipx5 each week for 2 continuous weeks; d22; in g (unit assumed)
Procedure: as §1
(§2) A well-grown human stromal tumor SHG44 mass was taken and aseptically cut into uniform small blocks of about 3 mm in size, and a right axilla of each mouse was subcutaneously inoculated with one block through a trocar. […] The animals were regrouped according to a tumor size. The animals with too large and too small tumors were sifted out. An average tumor volume in each group was approximately the same. An administration was started according to the following solution with an administration volume of 0.2 mL/20 g body weight. A long diameter a (mm) of the tumor and a short diameter b (mm) vertical to the tumor were measured by a digital display electronic caliper 2 times a week from day 9 of the inoculation. A tumor volume was calculated by the formula: TV=ab^2/2, and a relative tumor volume was calculated by the formula: RTV=Vt/Vo, wherein Vo was the obtained tumor volume measured at a cage separation (i.e. d1) and Vt was the tumor volume measured at each time. The animals were sacrificed 30 days after the inoculation (d22) and weighed, tumor mass was obtained by dissection and weighed, and the results were determined according to the following formula: […]

[3] = system: SHG44 (human glioma cells); format: cell-based; conditions: 72 h
Excerpt: (§3) A part of the compounds of the examples of the present disclosure were subjected to a tumor cell proliferation inhibition test by using an MTT method (e.g. Pharmacological Research Method of New Drug, 2007: 242-243, edited by Lu Qiujun).
(§4) A cell strain was selected from KYSE-150 (human esophageal squamous carcinoma cells), MGC803 (human gastric carcinoma cells), and SHG44 (human glioma cells), and frozen and passaged by a pharmacological laboratory of Shanghai Institute of Pharmaceutical Industry. A culture solution was DMEM+10% FBS+double antibody.
(§5) In-vitro activity test: 100 μL of a cell suspension at a concentration of 4-5×10^4/mL was added to each well of a 96-well plate, and placed in a 5% CO2 incubator at 37° C. After 24 h, a sample solution was added at 10 μL/well, double duplicate wells were set, and a reaction was performed at 37° C. with 5% CO2 for 72 h. 20 μL of 5 mg/ml of an MTT solution was added into each well and reacted for 4 h, a dissolving solution was added at 100 μL/well, the mixture was placed in an incubator, and after dissolution, an OD value at 570 nm was measured with a full-wavelength multifunctional microplate reader. An inhibition rate (IR) and a median inhibitory concentration (IC50) were calculated by using an Excel software.
(§6) The inhibition rate (IR %) of the drug on cell growth was calculated according to the following equation: […]

[4] = system: KYSE-150 (human esophageal squamous carcinoma cells); format: cell-based; conditions: 72 h
Excerpt: as §3, §4, §5, §6

[5] = system: MGC803 (human gastric carcinoma cells); format: cell-based; conditions: 72 h
Excerpt: as §3, §4, §5, §6

[6] = system: HCT116 (human colon carcinoma cells); experiment: Tumor cell proliferation inhibition test, CCK-8 method (Example 19); format: cell-based
Procedure: (§7) A part of the compounds prepared in the examples of the present disclosure were subjected to a tumor cell proliferation inhibition test by using a CCK-8 method. A cell line HCT116 (human colon carcinoma cells) and SW1990 (human pancreatic carcinoma cells) were purchased from Shanghai Meixuan Technology Co., Ltd. Samples (a part of the compounds prepared in the examples) were dissolved in DMSO (Merck), prepared into a concentration of 10 mM, and finally triply diluted in DMEM or McCoy's 5A 1640 medium to 8 concentration gradients. A cell culture solution was collected when a cell culture met a test requirement, 10 μL of the cell culture solution was uniformly coated on a cell counting plate, cells were counted for 3 times under a microscope, and a cell density was calculated by taking an average value; and a 96-well plate (Corning, #3599) was taken, 200 μL of the cell culture solution was added into each well for cell inoculation at a cell concentration of 6×10^3 cells per well, and the inoculated 96-well plate was incubated in a cell incubator containing 5% CO2 at 37° C. for 24 h. An old culture medium was removed by suction, 200 μL of the triply diluted sample DMEM or McCoy's 5A 1640 medium at an initial concentration of 10 μmol/L was added to each well, the DMSO content was controlled to be 1%, three duplicate wells were set, PBS was used as a blank control, and the plate was incubated in the incubator for 72 h. The original DMEM or McCoy's 5A 1640 medium in the 96-well plate and a PBS buffer in a final row were sucked out, a prepared CCK-8 solution (90% DMEM or McCoy's 5A 1640 medium+10% CCK-8) was added, the mixture was incubated in an incubator, and an absorbance was read by using a Biotek microplate reader. Cell growth inhibition rate IC %=(blank control well OD value−administration well OD value)/blank control well OD value×100%.

[7] = system: SW1990 (human pancreatic carcinoma cells); experiment: as above; format: cell-based
Procedure: as §7

[8] = system: human esophageal cancer KYSE-150; experiment: In-vivo antitumor activity test in human esophageal cancer KYSE-150 (subcutaneous tumor block in nude mice); parameters: species or system BALB/C nude mice; conditions: KYSE-150; 10 mg/kg, Ipx5 each week for 2 continuous weeks; d22
Procedure: as §1
as §2, with “esophageal cancer KYSE-150” for “stromal”, “tumor” for “tumor SHG44”

Row | SMILES | Body weight of animals (After a tumor is removed) [1] | Body weight of animals (After a tumor is removed) [2] | IC50 [3] [nM] | IC50 [4] [nM] | IC50 [5] [nM] | IC50 ([6]; 72 h) [nM] | IC50 ([7]; 72 h) [nM] | Body weight of animals (After a tumor is removed) [8] | IC50 ([3]; MTT, Table 2, read-out: IC50 SHG44) [nM] | IC50 ([4]; MTT, Table 2, read-out: IC50 KYSE-150) [nM] | IC50 ([5]; MTT, Table 2, read-out: IC50 MGC803) [nM] | IC50 ([6]; CCK-8, 72 h, Table 1, read-out: IC50 HCT116) [nM] | IC50 ([7]; CCK-8, 72 h, Table 1, read-out: IC50 SW1990) [nM]
1 | COc1cc(C(=O)NCCOCCOCCOCCOCCC(=O)N[C@@H](C(=O)N[C@@H](CCCNC(N)=O)C(=O)Nc2ccc(COC(=O)N3CCC(NC(=O)O[C@H]4CC[C@]5(C)C6CC[C@]7(C)[C@@H](c8ccc(=O)oc8)CC[C@]7(O)C6CC[C@@H]5C4)CC3)cc2)C(C)C)ccc1NC(=O)[C@@H]1N[C@@H](CC(C)(C)C)[C@](C#N)(c2ccc(Cl)cc2F)[C@H]1c1cccc(Cl)c1F (stereo partly shown) [Compound I-4] | 24.95 ± 1.62 | 26.10 ± 2.00 | 319 | 1060 | 1670 | 728 | 576 | 24.99 ± 1.48 |  |  |  |  | 
2 | COc1cc(C(=O)NCCOCCOCCOCCOCCC(=O)N[C@@H](C(=O)N[C@@H](CCCNC(N)=O)C(=O)Nc2ccc(COC(=O)NC3=C(C)C(=O)C4=C(C3=O)[C@@H](COC(N)=O)[C@@]3(OC)[C@H]5N[C@H]5CN43)cc2)C(C)C)ccc1NC(=O)[C@@H]1N[C@@H](CC(C)(C)C)[C@](C#N)(c2ccc(Cl)cc2F)[C@H]1c1cccc(Cl)c1F [Compound I-6] |  |  |  |  |  |  |  |  | > 50000 | 19400 | > 50000 | 542 | > 50000
3 | COc1cc(C(=O)NCCOCCOCCOCCOCCC(=O)NCC(=O)NCC(=O)N[C@@H](Cc2ccccc2)C(=O)NCC(=O)Nc2ccc(COC(=O)N3CCN(C(=O)O[C@H]4CC[C@@]5(C)[C@H](CC[C@@H]6[C@@H]5[C@H](O)C(=O)[C@]5(C)[C@@H](c7ccc(=O)oc7)CC[C@]65O)C4)CC3)cc2)ccc1NC(=O)[C@@H]1N[C@@H](CC(C)(C)C)[C@](C#N)(c2ccc(Cl)cc2F)[C@H]1c1cccc(Cl)c1F [Compound I-16] |  | 25.13 ± 0.97 | 41 | 243 | 402 | 210 | 22 |  |  |  |  |  | 
4 | COc1cc(C(=O)NCCOCCOCCOCCOCCC(=O)NCC(=O)NCC(=O)N[C@@H](Cc2ccccc2)C(=O)NCC(=O)Nc2ccc(COC(=O)N3CCC(NC(=O)O[C@H]4CC[C@]5(C)C6CC[C@]7(C)[C@@H](c8ccc(=O)oc8)CC[C@]7(O)C6CC[C@@H]5C4)CC3)cc2)ccc1NC(=O)[C@@H]1N[C@@H](CC(C)(C)C)[C@](C#N)(c2ccc(Cl)cc2F)[C@H]1c1cccc(Cl)c1F (stereo partly shown) [Compound I-17] |  | 25.60 ± 0.98 | 204 | 1890 | 1620 | 898 | 287 |  |  |  |  |  | 
